The values that follow come from patent US20210309657A1, “TRICYCLIC COMPOUNDS FOR THE TREATMENT AND PROPHYLAXIS OF BACTERIAL INFECTION” (Hoffmann-La Roche Inc., priority 2018, published 2021).

One data set deals with S. aureus (ATCC29213). As to the kind of experiment: 50% growth inhibitory concentration (IC50) determination assay, S. aureus. The format is cell-based. Particulars: Staphylococcus aureus, growth inhibition, Iso-Sensitest broth, OD 600 nm over 16h, <0.098 = the detection limit. The method, then:
(§1) The in vitro antimicrobial activity of the compounds against S. aureus (ATCC29213), K. pneumoniae (ATCC10031), and A. baumannii (ATCC17978), was determined according to the following procedure: The assay used a 10-points Iso-Sensitest broth medium to measure quantitatively the in vitro activity of the compounds against S. aureus ATCC29213, K. pneumoniae ATCC 10031, and A. baumannii ATCC17978. Stock compounds in DMSO were serially two-fold diluted (range from 50 to 0.097 μM final concentration) in 384 wells microtiter plates and inoculated with 49 μL the bacterial suspension in Iso-Sensitest broth medium to have a final cell concentration of ˜5×10^5 CFU/mL in a final volume/well of 50 μL/well. Microtiter plates were incubated at 35±2° C. Bacterial cell growth was determined with the measurement of optical density at λ=600 nm each 20 minutes over a time course of 16h. Growth inhibition was calculated during the logarithmic growth of the bacterial cells with determination of the concentration inhibiting 50% (IC50) of the growth. Compounds of the present invention were tested for their concentration inhibiting 50% (IC50). The data of IC50 over S. aureus (ATCC29213), K. pneumoniae (ATCC10031), and A. baumannii (ATCC17978) are illustrated in Table 4.

The subject of data set [1] is K. pneumoniae (ATCC10031). In words: 50% growth inhibitory concentration (IC50) determination assay, K. pneumoniae. It counts as cell-based. The following applies: Klebsiella pneumoniae, growth inhibition, Iso-Sensitest broth, OD 600 nm over 16h, <0.098 = the detection limit. How it is done: as §1
For a further data set, the system named is A. baumannii (ATCC17978). As to the kind of experiment: 50% growth inhibitory concentration (IC50) determination assay, A. baumannii. It counts as cell-based. The following applies: Acinetobacter baumannii, growth inhibition, Iso-Sensitest broth, OD 600 nm over 16h, <0.098 = the detection limit. How it is done: as §1
Data set [2] is described as follows: Lyophilisation solubility assay (LYSA). It counts as physicochemical. Particulars: aqueous buffer, thermodynamic from solid; 0.05 M phosphate buffer, pH 6.5; HPLC-UV; <1.0 = the detection limit; read-out: Lysa. How it is done: The solubility of compounds of present invention was assessed by LYSA assay. Samples were prepared in duplicate from 10 mM DMSO stock solutions ([…]) diluted in 30 μL pure DMSO. After evaporation of DMSO with a centrifugal vacuum evaporator, the residue was dissolved in 0.05 M phosphate buffer (150 μL, pH 6.5), which was stirred for one hour and shook for two hours. After one night, the solution was filtered using a microtiter filter plate. Then the filtrate and its 1/10 dilution were analyzed by HPLC-UV. In addition, a four-point calibration curve was prepared from the 10 mM stock solutions and used for the solubility determination of the compounds.

The structures appear in SMILES notation. Values after ≈ are worked out from the molar mass of the structure shown.

Take `CNc1cc(F)cc2c1[nH]c1ncc(-c3cncc(C#N)c3)c(N3CCC4(C[C@H]4N)C3)c12` (stereo in doubt) [Example 1.16, 5-[6-Fluoro-8-(methylamino)-4-[cis-2-amino-5-azaspiro[2.4]heptan-5-yl]-9H-pyrido[2,3-b]indol-3-yl]pyridine-3-carbonitrile]: the IC50 in the data set with S. aureus (ATCC29213) is 0.867 µM; in data set [1], less than 0.098 µM; in the data set with A. baumannii (ATCC17978), 0.104 µM. Besides, the solubility thermodynamic in data set [2] was 0.032 mg/mL (≈ 74.9 µM).
The corresponding values for `CNc1cc(F)c(F)c2c1[nH]c1ncc(-c3cnc(OC)nc3)c(N3CCC4(C[C@H]4N)C3)c12` (stereo in doubt) [Example 1.34, 4-[Cis-2-amino-5-azaspiro[2.4]heptan-5-yl]-5,6-difluoro-3-(2-methoxypyrimidin-5-yl)-N-methyl-9H-pyrido[2,3-b]indol-8-amine] are 0.603 µM, less than 0.098 µM, 0.157 µM and 0.093 mg/mL (≈ 206 µM).
On the same counts, the results for `CNc1cc(F)c(F)c2c1[nH]c1ncc(-c3cnc(OC)nc3)c(N3CCC4(C[C@@H]4N)C3)c12` (stereo in doubt) [Example 1.35, 4-[Trans-2-amino-5-azaspiro[2.4]heptan-5-yl]-5,6-difluoro-3-(2-methoxypyrimidin-5-yl)-N-methyl-9H-pyrido[2,3-b]indol-8-amine] are 0.184 µM, less than 0.098 µM, less than 0.098 µM and 0.09 mg/mL (≈ 199 µM).
The corresponding values for `CCNc1cc(F)c(F)c2c1[nH]c1ncc(-c3cncc(C#N)c3)c(N3CC[C@@H](N)C3)c12` [Example 1.04, 5-[4-[(3R)-3-Aminopyrrolidin-1-yl]-8-(ethylamino)-5,6-difluoro-9H-pyrido[2,3-b]indol-3-yl]pyridine-3-carbonitrile] are 0.38 µM, less than 0.098 µM, 0.212 µM and 0.145 mg/mL (≈ 335 µM).
Consider `CCNc1cc(Cl)cc2c1[nH]c1ncc(-c3cncc(C#N)c3)c(N3CC[C@@H](N)C3)c12` [Example 1.05, 5-[4-[(3R)-3-Aminopyrrolidin-1-yl]-6-chloro-8-(ethylamino)-9H-pyrido[2,3-b]indol-3-yl]pyridine-3-carbonitrile], for which the IC50 was 1.79 µM in the data set on S. aureus (ATCC29213), less than 0.098 µM in data set [1] and less than 0.098 µM with A. baumannii (ATCC17978). Moreover, the solubility thermodynamic in data set [2] was found to be 0.028 mg/mL (≈ 64.8 µM).
For `CCNc1cc(F)c(F)c2c1[nH]c1ncc(-c3cncc(C#N)c3)c(N3CCC(CN)C3)c12` (stereo not drawn) [Example 1.07, 5-[4-[3-(Aminomethyl)pyrrolidin-1-yl]-8-(ethylamino)-5,6-difluoro-9H-pyrido[2,3-b]indol-3-yl]pyridine-3-carbonitrile], the IC50 was 1.09 µM in the data set with S. aureus (ATCC29213), less than 0.098 µM in data set [1] and 0.11 µM in the data set with A. baumannii (ATCC17978). Also, the solubility thermodynamic in data set [2] is 0.039 mg/mL (≈ 87.2 µM).
In the case of `CCNc1cc(F)c(F)c2c1[nH]c1ncc(-c3cnc(OC)nc3)c(N3CCC(CN)C3)c12` (stereo not drawn) [Example 1.08, 4-[3-(Aminomethyl)pyrrolidin-1-yl]-N-ethyl-5,6-difluoro-3-(2-methoxypyrimidin-5-yl)-9H-pyrido[2,3-b]indol-8-amine], the IC50 in the data set with S. aureus (ATCC29213) was 0.789 µM; in data set [1], less than 0.098 µM; in the data set on A. baumannii (ATCC17978) it was 0.243 µM. In addition, the solubility thermodynamic in data set [2] came to 0.083 mg/mL (≈ 183 µM).
The corresponding values for `CCNc1cc(F)c(F)c2c1[nH]c1ncc(-c3cnc4ccnn4c3)c(N3CCC(N)C3)c12` (stereo not drawn) [Example 1.09, 4-(3-Aminopyrrolidin-1-yl)-N-ethyl-5,6-difluoro-3-pyrazolo[1,5-a]pyrimidin-6-yl-9H-pyrido[2,3-b]indol-8-amine] are 0.238 µM, less than 0.098 µM, 0.147 µM and 0.19 mg/mL (≈ 424 µM).
The corresponding values for `CNc1cc(F)c(F)c2c1[nH]c1ncc(-c3cncc(C#N)c3)c(N3CCC(CN)C3)c12` (stereo not drawn) [Example 1.13, 5-[4-[3-(Aminomethyl)pyrrolidin-1-yl]-5,6-difluoro-8-(methylamino)-9H-pyrido[2,3-b]indol-3-yl]pyridine-3-carbonitrile] are 1.5 µM, less than 0.098 µM, 0.764 µM and 0.046 mg/mL (≈ 106 µM).
As to `CCNc1cc(F)cc2c1[nH]c1ncc(-c3cncc(C#N)c3)c(N3CCCC(CN)C3)c12` (stereo not drawn) [Example 1.14, 5-[4-[3-(Aminomethyl)-1-piperidyl]-8-(ethylamino)-6-fluoro-9H-pyrido[2,3-b]indol-3-yl]pyridine-3-carbonitrile], the figures for the IC50 (with S. aureus (ATCC29213); in data set [1]; in the data set on A. baumannii (ATCC17978)) were 1.21 µM, less than 0.098 µM and less than 0.098 µM, respectively. In addition, the solubility thermodynamic in data set [2] was 0.01 mg/mL (≈ 22.5 µM).
Regarding `CNc1cc(F)c(F)c2c1[nH]c1ncc(-c3cncc(C#N)c3)c(N3CC[C@@H](N)C3)c12` [Example 1.15, 5-[4-[(3R)-3-Aminopyrrolidin-1-yl]-5,6-difluoro-8-(methylamino)-9H-pyrido[2,3-b]indol-3-yl]pyridine-3-carbonitrile], the IC50 in the data set on S. aureus (ATCC29213) was 0.526 µM; in data set [1], less than 0.098 µM; with A. baumannii (ATCC17978), 0.672 µM. Further, in data set [2], the solubility thermodynamic was determined as 0.169 mg/mL (≈ 403 µM).
As for `CCNc1cc(F)c(F)c2c1[nH]c1ncc(-c3cnc(OC)nc3)c(N3CC[C@@H](N)C3)c12` [Example 1.18, 4-[(3R)-3-Aminopyrrolidin-1-yl]-N-ethyl-5,6-difluoro-3-(2-methoxypyrimidin-5-yl)-9H-pyrido[2,3-b]indol-8-amine], the IC50 is 0.567 µM in the data set on S. aureus (ATCC29213), less than 0.098 µM in data set [1] and 0.249 µM with A. baumannii (ATCC17978). The solubility thermodynamic in data set [2] was found to be 0.195 mg/mL (≈ 444 µM).
The corresponding values for `CNc1cc(F)c(F)c2c1[nH]c1ncc(-c3cnc(OC)nc3)c(N3CCC(CN)C3)c12` (stereo not drawn) [Example 1.19, 4-[3-(Aminomethyl)pyrrolidin-1-yl]-5,6-difluoro-3-(2-methoxypyrimidin-5-yl)-N-methyl-9H-pyrido[2,3-b]indol-8-amine] are 0.712 µM, less than 0.098 µM, 0.683 µM and 0.031 mg/mL (≈ 70.5 µM).
The corresponding values for `CCNc1cc(C(F)(F)F)cc2c1[nH]c1ncc(-c3cncc(C#N)c3)c(N3CCC(N)C3)c12` (stereo not drawn) [Example 1.20, 5-[4-(3-Aminopyrrolidin-1-yl)-8-(ethylamino)-6-(trifluoromethyl)-9H-pyrido[2,3-b]indol-3-yl]pyridine-3-carbonitrile] are 1.27 µM, less than 0.098 µM, less than 0.098 µM and 0.124 mg/mL (≈ 266 µM).
The corresponding values for `CNc1cc(F)c(F)c2c1[nH]c1ncc(-c3cncc(C#N)c3)c(N3CCC(F)(CN)C3)c12` (stereo not drawn) [Example 1.22, 5-[4-[3-(Aminomethyl)-3-fluoro-pyrrolidin-1-yl]-5,6-difluoro-8-(methylamino)-9H-pyrido[2,3-b]indol-3-yl]pyridine-3-carbonitrile] are 0.224 µM, less than 0.098 µM, 0.112 µM and 0.011 mg/mL (≈ 24.4 µM).
`CNc1cc(F)c(F)c2c1[nH]c1ncc(-c3cncc(C#N)c3)c(N3CCC4(CCC4N)C3)c12` (stereo not drawn) [Example 1.49, 5-(4-(1-Amino-6-azaspiro[3.4]octan-6-yl)-5,6-difluoro-8-(methylamino)-9H-pyrido[2,3-b]indol-3-yl)nicotinonitrile]: the IC50 in the data set on S. aureus (ATCC29213) is 1.31 µM; in data set [1], less than 0.098 µM; in the data set with A. baumannii (ATCC17978) it was 0.143 µM.
On the same counts, the results for `CNc1cc(F)c(F)c2c1[nH]c1ncc(-c3cc[nH]c(=O)c3)c(N(C)C)c12` [Example 1.51, 4-[4-(Dimethylamino)-5,6-difluoro-8-(methylamino)-9H-pyrido[2,3-b]indol-3-yl]-1H-pyridin-2-one] are 1.04 µM, less than 0.098 µM and less than 0.098 µM.
On the same counts, the results for `CCNc1cc(F)cc2c1[nH]c1ncc(-c3cnc(OC)nc3)c(N3CCC[C@@H](CN)C3)c12` [Example 1.52, (S)-4-(3-(Aminomethyl)piperidin-1-yl)-N-ethyl-6-fluoro-3-(2-methoxypyrimidin-5-yl)-9H-pyrido[2,3-b]indol-8-amine] are 0.993 µM, less than 0.098 µM and less than 0.098 µM.
The corresponding values for `CNc1cc(F)c(F)c2c1[nH]c1ncc(-c3cnc4ccnn4c3)c(N(C)C)c12` [Example 1.62, 5,6-Difluoro-N4,N4,N8-trimethyl-3-pyrazolo[1,5-a]pyrimidin-6-yl-9H-pyrido[2,3-b]indole-4,8-diamine] are 1.38 µM, 0.238 µM and less than 0.098 µM.
